Reference: PubChem BioAssay AID2060909 (Molecular Pharmacology Branch, DTP, NCI, 2025)

System: 362531-283-R-J2-PDC complex spheroid viability
Experiment: Anticancer human tumor 362531-283-R-J2-PDC patient-derived colon adenocarcinoma cell line growth inhibition [RAS]
Settings: for viability, T/C: stronger effect = lower value; active = viability on the fitted dose curve at most 10% of control; inactive = the rest
Method in brief: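 Agents were tested in combination matrices in half-log decrements from a top concentration at or near clinical Cmax (10 microM if undetermined). Targets were multi-cell spheroids of tumour lines plus HUVEC and MSC stromal cells.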

[1] = curve of first compound, second compound 0.000949 µM
[2] = curve of first compound, second compound 0.003 µM
[3] = curve of first compound, second compound 0.00949 µM
[4] = curve of first compound, second compound 0.03 µM
[5] = curve of first compound, second compound 0.0949 µM
[6] = curve of first compound, second compound 0.3 µM
[7] = second compound 0.000949 µM, first compound 0.00316 µM
[8] = second compound 0.000949 µM, first compound 0.01 µM
[9] = second compound 0.000949 µM, first compound 0.0316 µM
[10] = second compound 0.000949 µM, first compound 0.1 µM
[11] = second compound 0.000949 µM, first compound 0.316 µM
[12] = second compound 0.000949 µM, first compound 1 µM
[13] = second compound 0.003 µM, first compound 0.00316 µM
[14] = second compound 0.003 µM, first compound 0.01 µM
[15] = second compound 0.003 µM, first compound 0.0316 µM
[16] = second compound 0.003 µM, first compound 0.1 µM
[17] = second compound 0.003 µM, first compound 0.316 µM
[18] = second compound 0.003 µM, first compound 1 µM
[19] = second compound 0.00949 µM, first compound 0.00316 µM
[20] = second compound 0.00949 µM, first compound 0.01 µM
[21] = second compound 0.00949 µM, first compound 0.0316 µM
[22] = second compound 0.00949 µM, first compound 0.1 µM
[23] = second compound 0.00949 µM, first compound 0.316 µM
[24] = second compound 0.00949 µM, first compound 1 µM
[25] = second compound 0.03 µM, first compound 0.00316 µM
[26] = second compound 0.03 µM, first compound 0.01 µM
[27] = second compound 0.03 µM, first compound 0.0316 µM
[28] = second compound 0.03 µM, first compound 0.1 µM
[29] = second compound 0.03 µM, first compound 0.316 µM
[30] = second compound 0.03 µM, first compound 1 µM
[31] = second compound 0.0949 µM, first compound 0.00316 µM
[32] = second compound 0.0949 µM, first compound 0.01 µM
[33] = second compound 0.0949 µM, first compound 0.0316 µM
[34] = second compound 0.0949 µM, first compound 0.1 µM
[35] = second compound 0.0949 µM, first compound 0.316 µM
[36] = second compound 0.0949 µM, first compound 1 µM
[37] = second compound 0.3 µM, first compound 0.00316 µM
[38] = second compound 0.3 µM, first compound 0.01 µM
[39] = second compound 0.3 µM, first compound 0.0316 µM
[40] = second compound 0.3 µM, first compound 0.1 µM
[41] = second compound 0.3 µM, first compound 0.316 µM
[42] = second compound 0.3 µM, first compound 1 µM
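Note: spheroids exposed to the agents for 7 days before readout.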
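Throughout, for viability, T/C: luminescence viability as percent of DMSO vehicle control wells.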

CCC(CC)c1cc(NC2CCC(N)C2)n2nccc2n1 (centres undefined) + C#Cc1c(F)ccc2cc(O)cc(-c3ncc4c(N5CC6CCC(C5)N6)nc(OCC56CCCN5CC(F)C6)nc4c3F)c12
4.96 µM: IC50 (curve of first compound, second compound 0.0316 µM)
4.36 µM: IC50 (curve of first compound, second compound 0.1 µM)
0.338 µM: IC50 (curve of first compound, second compound 10 µM)
inactive: viability, T/C (second compound 0.0316 µM, first compound 0.0316 µM) 96.9% | viability, T/C (second compound 0.0316 µM, first compound 0.1 µM) 107% | viability, T/C (second compound 0.0316 µM, first compound 0.316 µM) 99.9% | viability, T/C (second compound 0.0316 µM, first compound 1 µM) 105% | viability, T/C (second compound 0.0316 µM, first compound 3.16 µM) 79% | viability, T/C (second compound 0.1 µM, first compound 0.0316 µM) 105% | viability, T/C (second compound 0.1 µM, first compound 0.1 µM) 98.8% | viability, T/C (second compound 0.1 µM, first compound 0.316 µM) 101% | viability, T/C (second compound 0.1 µM, first compound 1 µM) 88% | viability, T/C (second compound 0.1 µM, first compound 3.16 µM) 70% | viability, T/C (second compound 0.316 µM, first compound 0.0316 µM) 117% | viability, T/C (second compound 0.316 µM, first compound 0.1 µM) 96.9% | viability, T/C (second compound 0.316 µM, first compound 0.316 µM) 89.5% | viability, T/C (second compound 0.316 µM, first compound 1 µM) 83.3% | viability, T/C (second compound 0.316 µM, first compound 3.16 µM) 87.2% | viability, T/C (second compound 1 µM, first compound 0.0316 µM) 80.4% | viability, T/C (second compound 1 µM, first compound 0.1 µM) 88.3% | viability, T/C (second compound 1 µM, first compound 0.316 µM) 82.2% | viability, T/C (second compound 1 µM, first compound 1 µM) 82.9% | viability, T/C (second compound 1 µM, first compound 3.16 µM) 19.8% | viability, T/C (second compound 3.16 µM, first compound 0.0316 µM) 72.4% | viability, T/C (second compound 3.16 µM, first compound 0.1 µM) 76.3% | viability, T/C (second compound 3.16 µM, first compound 0.316 µM) 68.1% | viability, T/C (second compound 3.16 µM, first compound 1 µM) 79.2% | viability, T/C (second compound 10 µM, first compound 0.0316 µM) 44.2% | viability, T/C (second compound 10 µM, first compound 0.1 µM) 49.4% | viability, T/C (second compound 10 µM, first compound 0.316 µM) 58.1% | viability, T/C (second compound 10 µM, first compound 1 µM) 36.2%
1.5 µM: IC50 (curve of first compound, second compound 3.16 µM)
5.07 µM: IC50 (curve of first compound, second compound 0.316 µM)
1.82 µM: IC50 (curve of first compound, second compound 1 µM)
active: viability, T/C (second compound 0.0316 µM, first compound 10 µM) 4.8% | viability, T/C (second compound 0.1 µM, first compound 10 µM) 3.26% | viability, T/C (second compound 0.316 µM, first compound 10 µM) 2.95% | viability, T/C (second compound 1 µM, first compound 10 µM) 4.12% | viability, T/C (second compound 3.16 µM, first compound 3.16 µM) 5.75% | viability, T/C (second compound 3.16 µM, first compound 10 µM) 3.27% | viability, T/C (second compound 10 µM, first compound 3.16 µM) 7.13% | viability, T/C (second compound 10 µM, first compound 10 µM) 4.45%

CCN1CCN(Cc2ccc(Nc3ncc(F)c(-c4cc(F)c5nc(C)n(C(C)C)c5c4)n3)nc2)CC1 + CCn1c(-c2cccnc2C(C)OC)c2c3cc(ccc31)N1CCOC(CC(NC(=O)C(C(C)C)N(C)C(=O)C3(F)CCN(C(=O)C#CC(C)(C)N(C)C)CC3)C(=O)N3CCCC(N3)C(=O)OCC(C)(C)C2)C1
> 1 µM: IC50 [1] | IC50 [4] | IC50 [5]
inactive: viability, T/C [7] 96% | viability, T/C [8] 92% | viability, T/C [9] 67.3% | viability, T/C [10] 83.8% | viability, T/C [11] 66.4% | viability, T/C [12] 46.7% | viability, T/C [13] 108% | viability, T/C [14] 98.5% | viability, T/C [15] 65.6% | viability, T/C [16] 73% | viability, T/C [17] 66.6% | viability, T/C [18] 40.9% | viability, T/C [19] 105% | viability, T/C [20] 105% | viability, T/C [21] 55.3% | viability, T/C [22] 74.4% | viability, T/C [23] 59.8% | viability, T/C [24] 45.7% | viability, T/C [25] 112% | viability, T/C [26] 94.2% | viability, T/C [27] 57.5% | viability, T/C [28] 65.8% | viability, T/C [29] 66.1% | viability, T/C [30] 43.4% | viability, T/C [31] 103% | viability, T/C [32] 88.3% | viability, T/C [33] 53.4% | viability, T/C [34] 69% | viability, T/C [35] 65% | viability, T/C [36] 46.6% | viability, T/C [37] 100% | viability, T/C [38] 82.5% | viability, T/C [39] 56.4% | viability, T/C [40] 64.9% | viability, T/C [41] 57.2% | viability, T/C [42] 40.9%
0.437 µM: IC50 [6]
0.719 µM: IC50 [2]
0.876 µM: IC50 [3]

CC(=O)OC12COC1CC(O)C1(C)C(=O)C(O)C3=C(C)C(OC(=O)C(O)C(NC(=O)OC(C)(C)C)c4ccccc4)CC(O)(C(OC(=O)c4ccccc4)C21)C3(C)C (centres undefined)
inactive: viability, T/C (compound 0.0316 µM) 101% [middle of 4 runs] | viability, T/C (compound 0.1 µM) 90.8% [middle of 4 runs] | viability, T/C (compound 0.316 µM) 32.6% [middle of 4 runs] | viability, T/C (compound 1 µM) 21.6% [middle of 4 runs] | viability, T/C (compound 3.16 µM) 27.5% [middle of 4 runs] | viability, T/C (compound 10 µM) 36% [middle of 4 runs]
226 nM [middle of 4 runs]: IC50 (curve of compound)

C[C@@H](NC(=O)c1ncnc(N)c1Cl)c1ncc(C(=O)Nc2cc(C(F)(F)F)c(Cl)cn2)s1
> 10 µM: IC50 (curve of compound)
inactive: viability, T/C (compound 0.0316 µM) 97.4% [middle of 4 runs] | viability, T/C (compound 0.1 µM) 102% [middle of 4 runs] | viability, T/C (compound 1 µM) 95.7% [middle of 4 runs] | viability, T/C (compound 3.16 µM) 93.9% [middle of 4 runs] | viability, T/C (compound 10 µM) 75.5% [middle of 4 runs]

C=CC(=O)Nc1cc(Nc2nccc(-c3cn(C)c4ccccc34)n2)c(OC)cc1N(C)CCN(C)C + CCn1c(-c2cccnc2C(C)OC)c2c3cc(ccc31)N1CCOC(CC(NC(=O)C(C(C)C)N(C)C(=O)C3(F)CCN(C(=O)C#CC(C)(C)N(C)C)CC3)C(=O)N3CCCC(N3)C(=O)OCC(C)(C)C2)C1
inactive: viability, T/C [7] 92.4% | viability, T/C [8] 93.8% | viability, T/C [9] 104% | viability, T/C [10] 98.1% | viability, T/C [11] 98% | viability, T/C [12] 75.1% | viability, T/C [13] 108% | viability, T/C [14] 107% | viability, T/C [15] 103% | viability, T/C [16] 98.6% | viability, T/C [17] 95.4% | viability, T/C [18] 68.8% | viability, T/C [19] 112% | viability, T/C [20] 103% | viability, T/C [21] 101% | viability, T/C [22] 104% | viability, T/C [23] 101% | viability, T/C [24] 82.2% | viability, T/C [25] 98.6% | viability, T/C [26] 99.9% | viability, T/C [27] 100% | viability, T/C [28] 101% | viability, T/C [29] 101% | viability, T/C [30] 82.7% | viability, T/C [31] 98.4% | viability, T/C [32] 97.1% | viability, T/C [33] 99% | viability, T/C [34] 106% | viability, T/C [35] 106% | viability, T/C [36] 79.2% | viability, T/C [37] 91.3% | viability, T/C [38] 90.1% | viability, T/C [39] 99.6% | viability, T/C [40] 96.6% | viability, T/C [41] 104% | viability, T/C [42] 83.6%
> 1 µM: IC50 [1] | IC50 [2] | IC50 [3] | IC50 [4] | IC50 [5] | IC50 [6]
